The assay deals with T1, KRAS G12D:RAF1 protein interaction [KRAS G12D:RAF1蛋白相互作用] (Homo sapiens, UniProt P01116, G12D).
T1 construct: purchased Cisbio 63ADK000CB21PEG
In words: Inhibition of the KRAS G12D:RAF1 protein interaction (TR-FRET binding assay). As to conditions: in vitro, 10000nM-0.1nM, 4 h at room temperature. For orientation: In TR-FRET formats the signal depends on donor and acceptor labels being close together.

T1 sequence (P01116 1-188 isoform P01116-2 G12D): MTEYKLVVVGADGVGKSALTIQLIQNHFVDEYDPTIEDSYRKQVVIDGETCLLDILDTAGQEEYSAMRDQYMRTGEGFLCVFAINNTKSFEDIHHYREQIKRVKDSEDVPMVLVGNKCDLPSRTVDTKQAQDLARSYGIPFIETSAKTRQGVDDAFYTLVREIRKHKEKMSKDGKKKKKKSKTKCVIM

On to `O=C([C@H]1CCCN1)N1C2CCC1CN(c1nc(OC[C@@]34CCCN3C[C@H](F)C4)nc3c(F)c(-c4cc(O)cc5cccc(F)c45)ncc13)C2` [实施例3, 4-(8-(D-prolyl)-3,8-diazabicyclo[3.2.1]octan-3-yl)-8-fluoro-7-(8-fluoro-3-hydroxynaphthalen-1-yl)-2-(((2R,7aS)-2-fluorotetrahydro-1H-pyrrolizin-7a(5H)-yl)methoxy)pyrido[4,3-d]pyrimidine], for which the concentration for half-maximal inhibition (IC50) was 114 nM.

As for `OCCN1C2CCC1CN(c1nc(OC[C@@]34CCCN3C[C@H](F)C4)nc3c(F)c(-c4cc(O)cc5cccc(F)c45)ncc13)C2` [实施例2, 5-fluoro-4-(8-fluoro-2-(((2R,7aS)-2-fluorotetrahydro-1H-pyrrolizin-7a(5H)-yl)methoxy)-4-(8-(2-hydroxyethyl)-3,8-diazabicyclo[3.2.1]octan-3-yl)pyrido[4,3-d]pyrimidin-7-yl)naphthalen-2-ol], the IC50 turned out to be 189 nM.

Broadly, the IC50 is the concentration that inhibits the measured activity by half. A high value points to lower potency.

These data come from patent CN116323625A, “杂环类衍生物、其制备方法及其医药上的用途” (Zhejiang Hisun Pharmaceutical Co Ltd, priority 2021, dated 2023).
